Several values for one entry are separate records, joined by “and”; a condition that tells them apart may be missing. Equal values may be shown once.
Details: Liquid, Closed cell (Static) method

F/C=C/C(F)(F)F [trans-1,3,3,3-tetrafluoropropene]
Details | vapor or sublimation pressure
235.01 K | 40.19 kPa
235.17 K | 40.58 kPa
239.05 K | 49.6 kPa
239.07 K | 49.6 kPa and 49.61 kPa
242.03 K | 57.54 kPa
242.04 K | 57.54 kPa
245.15 K | 66.85 kPa
245.16 K | 66.94 kPa and 66.9 kPa
247.99 K | 76.45 kPa
248.02 K | 76.52 kPa
249.38 K | 81.49 kPa
250.68 K | 86.48 kPa
250.72 K | 86.57 kPa
252.24 K | 92.69 kPa and 92.75 kPa
252.58 K | 94.2 kPa
256.25 K | 110.47 kPa
258.72 K | 122.66 kPa
258.74 K | 122.75 kPa
262.01 K | 140.52 kPa
264.78 K | 157.04 kPa
268.27 K | 179.98 kPa
271.72 K | 205.14 kPa
274.51 K | 227.45 kPa
277.43 K | 252.66 kPa
280.73 K | 283.77 kPa
284.07 K | 318.06 kPa
287.25 K | 353.65 kPa
290.51 K | 393.03 kPa
293.33 K | 429.86 kPa
296.67 K | 476.7 kPa
299.73 K | 523.05 kPa
302.71 K | 571.25 kPa
303.98 K | 592.72 kPa
306.42 K | 635.82 kPa and 635.84 kPa
308.5 K | 674.57 kPa
311.91 K | 741.32 kPa and 741.51 kPa
314.3 K | 791.29 kPa
314.31 K | 791.42 kPa
316.04 K | 829.03 kPa and 829.14 kPa
318.53 K | 885.61 kPa
319.38 K | 905.41 kPa and 905.49 kPa
320.96 K | 943.34 kPa
323.48 K | 1006.1 kPa
325.23 K | 1051.7 kPa
327.75 K | 1119.9 kPa
329.78 K | 1177.5 kPa
332.09 K | 1245.2 kPa
334.3 K | 1312.8 kPa
336.51 K | 1383.2 kPa
338.43 K | 1446.6 kPa
340.44 K | 1515 kPa
342.65 K | 1593.5 kPa
344.94 K | 1678 kPa
347.25 K | 1766.4 kPa
349.48 K | 1855 kPa
351.21 K | 1926.4 kPa
353.31 K | 2015.3 kPa
355.52 K | 2112.5 kPa
358.52 K | 2250 kPa
360.61 K | 2349.9 kPa
362.53 K | 2444.8 kPa
364.71 K | 2556.2 kPa
366.86 K | 2669.6 kPa
367.85 K | 2724.3 kPa
368.95 K | 2784.2 kPa
369.85 K | 2835.5 kPa
371.01 K | 2900.6 kPa
371.91 K | 2953.8 kPa
372.81 K | 3005.5 kPa
374.07 K | 3082.4 kPa
374.9 K | 3131.7 kPa
376.04 K | 3203.1 kPa
377.04 K | 3265.4 kPa
377.94 K | 3323.5 kPa
378.57 K | 3364.9 kPa
379.16 K | 3402.3 kPa
379.51 K | 3425.9 kPa
379.87 K | 3450.3 kPa
380.02 K | 3459.7 kPa
380.51 K | 3493.5 kPa

— the NIST ThermoML archive (doi:10.1021/acs.jced.6b00673)
